Biological target: T1, Ferroportin (Homo sapiens, UniProt Q9NP59)
T1 sequence (Q9NP59 whole entry): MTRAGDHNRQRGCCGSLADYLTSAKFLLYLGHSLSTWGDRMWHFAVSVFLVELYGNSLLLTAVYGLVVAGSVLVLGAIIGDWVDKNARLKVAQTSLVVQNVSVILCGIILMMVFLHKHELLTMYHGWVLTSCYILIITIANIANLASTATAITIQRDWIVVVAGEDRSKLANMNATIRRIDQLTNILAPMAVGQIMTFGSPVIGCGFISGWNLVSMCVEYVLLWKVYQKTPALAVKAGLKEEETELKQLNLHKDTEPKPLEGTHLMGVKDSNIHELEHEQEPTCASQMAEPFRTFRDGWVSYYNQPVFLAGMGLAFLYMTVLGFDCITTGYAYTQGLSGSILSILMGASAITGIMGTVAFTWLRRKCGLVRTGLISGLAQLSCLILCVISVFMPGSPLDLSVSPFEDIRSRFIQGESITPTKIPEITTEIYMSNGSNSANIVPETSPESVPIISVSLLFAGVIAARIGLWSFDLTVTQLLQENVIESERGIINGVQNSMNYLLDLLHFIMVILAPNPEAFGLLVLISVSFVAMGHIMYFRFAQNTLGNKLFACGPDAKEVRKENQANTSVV
Assay: Antagonist activity at C-terminal halo-tag fused human ferroportin expressed in MDCK cells assessed as inhibition of hepcidin-induced ferroportin internalization after overnight incubation by Draq5 staining-based fluorescence assay
Format: cell-based

Structure (SMILES) | IC50 [µM]
Cc1cc(C)c(S(=O)(=O)Nc2c(Cl)cc(Cl)c3cccnc23)c(C)c1 | 100
O=S(=O)(Nc1cccc2cccnc12)c1c(Cl)cccc1Cl | 100
COc1ccc(S(=O)(=O)Nc2cccc3cccnc23)c(N)c1 | 100
COc1ccc(S(=O)(=O)Nc2cccc3cccnc23)cc1 | 100
CCOc1cc(NS(=O)(=O)c2ccccc2)c2ncccc2c1 | 100
CC(C)c1ccc2cccnc2c1NS(=O)(=O)c1ccccc1 | 100
O=S(=O)(Nc1ccc(Cl)c2cccnc12)c1ccc(Cl)cc1Cl | 100
Cc1ccc2cccnc2c1NS(=O)(=O)c1ccccc1 | 100
O=S(=O)(Nc1c(Cl)ccc2cccnc12)c1ccccc1 | 100
Cc1ccc2cccc(NS(=O)(=O)c3ccccc3N)c2n1 | 100
O=S(=O)(Nc1c(O)ccc2cccnc12)c1ccccc1 | 100
O=S(=O)(Nc1ccc(Br)c2cccnc12)c1ccccc1 | 100
COc1ccnc2c(NS(=O)(=O)c3ccccc3)cccc12 | 100
COc1cc(NS(=O)(=O)c2ccc(Cl)cc2Cl)c2ncccc2c1 | 100
Cc1ccccc1S(=O)(=O)Nc1cccc2cccnc12 | 100
CC(=O)Nc1cc(C(F)(F)F)ccc1S(=O)(=O)Nc1cccc2cccnc12 | 100
COc1ccc(S(=O)(=O)Nc2cccc3ccc(C)nc23)c(N)c1 | 100
COc1cc(NS(=O)(=O)Nc2cccc(Cl)c2C)c2ncccc2c1 | 100
COc1ccccc1S(=O)(=O)Nc1cccc2cccnc12 | 100
O=[N+]([O-])c1cc(C(F)(F)F)ccc1S(=O)(=O)Nc1cccc2cccnc12 | 100
CN1c2c(ccc3cccnc23)-c2ccccc2S1(=O)=O | 100
COc1cc2cccnc2c2c1-c1ccccc1S(=O)(=O)N2 | 100
Cc1cccc(Cl)c1S(=O)(=O)Nc1cccc2cccnc12 | 100
O=S(=O)(Nc1cc(Cl)cc2cccnc12)c1ccccc1 | 100

Second part, the molecule after the results:

IC50 [µM] | Structure (SMILES)
100 | Cc1ccc2cccc(NS(=O)(=O)c3ccccc3)c2n1
100 | Cc1cc(NS(=O)(=O)c2ccccc2)c2ncccc2c1C
100 | Nc1cc(C(F)(F)F)ccc1S(=O)(=O)Nc1ccc(Cl)c2cccnc12
100 | O=S(=O)(Nc1cccc2ccc(Cl)nc12)c1ccccc1
100 | Cc1ccc2ccc3c(c2n1)NS(=O)(=O)c1ccccc1-3
100 | Cc1c(Cl)cccc1NS(=O)(=O)Nc1ccc(Cl)c2cccnc12
100 | CCc1ccc2cccnc2c1NS(=O)(=O)c1ccccc1
100 | Cc1ccc(S(=O)(=O)Nc2cccc3cc(C)cnc23)c(N)c1
100 | Cc1cnc2c(NS(=O)(=O)c3ccc(Cl)cc3Cl)cccc2c1
100 | COc1cc(NS(=O)(=O)Nc2c(F)cccc2F)c2ncccc2c1
100 | Cc1cc(NS(=O)(=O)c2ccccc2)c2ncccc2c1Cl
100 | COc1ccnc2c3c(ccc12)-c1ccccc1S(=O)(=O)N3
100 | COc1ccc2cccnc2c1NS(=O)(=O)c1ccccc1
50 | COC(=O)c1ccnc2c(NS(=O)(=O)c3ccccc3)cccc12
